Drawing on publication PMC6572176, “Functional Glyco-Nanogels for Multivalent Interaction with Lectins” (Molecules, 2019), this text covers IC50 for two molecules.

Assay [1] addresses T1, Ulex europaeus agglutinin I (UEA I) (Ulex europaeus, UniProt P22972).
T1 construct: native plant lectin, fluorescein-labeled (Vector Laboratories)
T1 sequence (P22972 1-243): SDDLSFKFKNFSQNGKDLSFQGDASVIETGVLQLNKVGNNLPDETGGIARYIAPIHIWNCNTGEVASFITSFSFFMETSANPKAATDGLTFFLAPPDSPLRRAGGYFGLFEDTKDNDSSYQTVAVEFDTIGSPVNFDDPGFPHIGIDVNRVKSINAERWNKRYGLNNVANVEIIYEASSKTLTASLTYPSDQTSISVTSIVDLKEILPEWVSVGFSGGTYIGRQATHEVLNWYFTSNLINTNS
Kind of assay: ELISA-type competitive inhibition, fluorescein-labeled lectin on immobilized porcine stomach mucin. As to conditions: 10 mM HEPES, 150 mM NaCl, 0.1 mM CaCl2, pH 7.5, 1 h. The assay is classed as binding. A general note: ELISA stands for enzyme-linked immunosorbent assay.

Assay [2] addresses T2, Erythrina cristagalli lectin (ECL) (Erythrina crista-galli, UniProt P83410).
T2 construct: native plant lectin, fluorescein-labeled (Vector Laboratories); dimeric
T2 sequence (P83410 1-239): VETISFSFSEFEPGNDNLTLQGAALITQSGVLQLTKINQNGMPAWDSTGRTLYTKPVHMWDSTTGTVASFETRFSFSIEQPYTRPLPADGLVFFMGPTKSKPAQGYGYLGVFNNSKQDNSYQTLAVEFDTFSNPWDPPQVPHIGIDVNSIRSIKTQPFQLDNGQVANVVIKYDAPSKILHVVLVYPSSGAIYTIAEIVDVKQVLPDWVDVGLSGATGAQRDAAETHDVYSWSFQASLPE
Kind of assay: ELISA-type competitive inhibition, fluorescein-labeled lectin on immobilized asialofetuin. It counts as binding. Particulars: 10 mM HEPES, 150 mM NaCl, 0.1 mM CaCl2, pH 7.5, 1 h.

Consider `C[C@@H]1OC(O)[C@@H](O)[C@H](O)[C@@H]1O` (some centres unmarked) [fucose], for which the IC50 result in assay [1] was “The IC50 value of fucose for UEA I binding is three-times”. As to `OC[C@H]1O[C@@H](O[C@H]2[C@H](O)[C@@H](O)C(O)O[C@@H]2CO)[C@H](O)[C@@H](O)[C@H]1O` (some centres unmarked) [lactose], the IC50 entry in assay [2] was “free lactose is a potent inhibitor for ECL with IC50 in the same range”.
